From patent publication US8158621B2, “Methods of treating or preventing autoimmune diseases with 2,4-pyrimidinediamine compounds” (Rigel Pharmaceuticals, Inc., priority 2002, dated 2012)

Test system: cultured human mast cells (CHMC)
Test: CHMC low cell density ionomycin activation: tryptase assay
Assay type: cell-based
Settings: low cell density; read-out: CHMC Ionomycin Tryptase

`CNC(=O)CCn1ncc2cc(Nc3ncc(F)c(Nc4ccc(OC)c(Cl)c4)n3)ccc21` [Compound R935462] and `CC(C)(C)OC(=O)NCc1ccc(Nc2ncc(F)c(Nc3ccc(Cl)c(Cl)c3)n2)cc1` [Compound R950458] cannot be ordered by IC50: > 10 µM for the first, 12 µM for the second.

`Fc1cnc(Nc2ccc(N3CCOCC3)cc2)nc1NC1CC1` [Compound R945356] and `Fc1cnc(NC2CC2)nc1Nc1ccc(N2CCOCC2)cc1` [Compound R945357] cannot be ordered by IC50: > 10 µM for the first, > 10 µM for the second.

`Fc1cnc(NC2CCC2)nc1Nc1ccc(N2CCOCC2)cc1` [Compound R945358] and `O=C(COc1cccc(Nc2ncc(F)c(Nc3ccc(N4CCOCC4)cc3)n2)c1)NC1CCC1` [Compound R945362] cannot be ordered by IC50: > 10 µM for the first, > 10 µM for the second.

`O=C(COc1cccc(Nc2ncc(F)c(Nc3ccc(N4CCOCC4)cc3)n2)c1)NC1CC1` [Compound R945360] and `O=C(COc1cccc(Nc2ncc(F)c(NC3CC3)n2)c1)Nc1ccc(N2CCOCC2)cc1` [Compound R945365] cannot be ordered by IC50: > 10 µM for the first, > 10 µM for the second.

`COC(=O)COc1cccc(Nc2ncc(F)c(Nc3ccc(N4CCOCC4)cc3)n2)c1` [Compound R945361] and `CNC(=O)COc1cccc(Nc2ncc(F)c(Nc3ccc4c(c3)[C@@H](N)CCO4)n2)c1` [Compound R950420] cannot be ordered by IC50: > 10 µM for the first, > 10 µM for the second.

`O=C(COc1cccc(Nc2ncc(F)c(NC3CC3)n2)c1)NC1CC1` [Compound R945363] and `O=C(COc1cccc(Nc2ncc(F)c(NC3CC3)n2)c1)NC1CCC1` [Compound R945364] cannot be ordered by IC50: > 10 µM for the first, > 10 µM for the second.

`O=C(COc1cccc(Nc2ncc(F)c(NC3CCC3)n2)c1)NC1CC1` [Compound R945393] and `COc1ccc(Nc2ncc(F)c(NC3CCC3)n2)cc1Cl` [Compound R945395] cannot be ordered by IC50: 21.7 µM for the first, > 10 µM for the second.

First: Fc1cnc(Nc2ccc(Cl)c(Cl)c2)nc1NC1CCC1 [Compound R945394]
Second: CCN(CC)CCCNc1ncc(F)c(Nc2ccc(Cl)c(Cl)c2)n1 [Compound R950470]
The IC50 of the first is lower: 5.61 µM for the first, > 10 µM for the second.

`O=C1COc2ccc(Nc3nc(Nc4ccc5cc[nH]c5c4)ncc3F)nc2N1` [Compound R945443] and `CC1(C)Oc2ccc(Nc3nc(Nc4ccc5cc[nH]c5c4)ncc3F)nc2NC1=O` [Compound R945444] cannot be ordered by IC50: > 10 µM for the first, > 10 µM for the second.

`O=C1COc2ccc(Nc3nc(Nc4cc(Cl)cc(Cl)c4)ncc3F)nc2N1` [Compound R945454] and `COc1cc(Nc2nc(Nc3ccc(CN)cc3)ncc2F)cc(OC)c1` [Compound R950457] cannot be ordered by IC50: > 10 µM for the first, > 10 µM for the second.

`O=C(N[C@H]1CCOc2ccc(Nc3nc(Cl)ncc3F)cc21)OCc1ccccc1` [Compound R950413] and `CNC(=O)COc1cccc(Nc2ncc(F)c(Nc3ccc4c(c3)[C@@H](NC(=O)OCc3ccccc3)CCO4)n2)c1` [Compound R950417] cannot be ordered by IC50: > 10 µM for the first, > 10 µM for the second.

First: CNC(=O)COc1cccc(Nc2ncc(F)c(Nc3ccc4c(c3)[C@H](NC(=O)OCc3ccccc3)CCO4)n2)c1 [Compound R950418]
Second: COc1cc(Nc2nc(Nc3ccc(CNC(=O)OC(C)(C)C)cc3)ncc2F)cc(OC)c1 [Compound R950456]
The IC50 of the first is 2.1-fold higher: 9.09 µM for the first, 4.4 µM for the second.

`CC1(C)C(=O)NC(=O)c2cc(Nc3nc(N[C@@H]4CCCC[C@H]4N)ncc3F)ccc21` [Compound R950442] and `NC1CCCCC1Nc1ncc(F)c(Nc2ccc3c(c2)NC(=O)C(CCO)O3)n1` (stereo not drawn) [Compound R950443] cannot be ordered by IC50: > 10 µM for the first, > 10 µM for the second.

`CCN(CC)CCNC(=O)c1ccc(Nc2ncc(F)c(Nc3ccc4c(c3)C(=O)NC(=O)C4(C)C)n2)cc1` [Compound R950447] and `CCN(CC)CCCNc1ncc(F)c(Nc2ccc3c(c2)C(=O)NC(=O)C3(C)C)n1` [Compound R950472] cannot be ordered by IC50: > 10 µM for the first, > 10 µM for the second.

`CCN(CC)CCCNc1ncc(F)c(Nc2cc(OC)cc(OC)c2)n1` [Compound R950469] and `CCN(CC)CCCNc1ncc(F)c(Nc2ccc3c(c2)NC(=O)[C@H](C)O3)n1` [Compound R950471] cannot be ordered by IC50: > 10 µM for the first, > 10 µM for the second.

Test system: cultured human mast cells (CHMC)
Test: CHMC low cell density IgE activation: tryptase assay
Assay type: cell-based
Settings: low cell density; read-out: CHMC anti-IgE Tryptase
How it was run: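 CHMC resuspended in pre-warmed MT buffer at 1000-1500 cells/well (donor-dependent) and preincubated 1 hr at 37° C, then stimulated with anti-IgE for 30 min at 37° C; unstimulated wells got MT alone. Supernatant tryptase activity read with tryptase substrate after 30 min at room temperature.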

Compared with `CNC(=O)CCn1ncc2cc(Nc3ncc(F)c(Nc4ccc(OC)c(Cl)c4)n3)ccc21` [Compound R935462], `CC(C)(C)OC(=O)NCc1ccc(Nc2ncc(F)c(Nc3ccc(Cl)c(Cl)c3)n2)cc1` [Compound R950458] is 3.6-fold higher in IC50: 364 nM for the first, 1320 nM for the second. The first is the more potent here.

Compared with `Fc1cnc(Nc2ccc(N3CCOCC3)cc2)nc1NC1CC1` [Compound R945356], `Fc1cnc(NC2CC2)nc1Nc1ccc(N2CCOCC2)cc1` [Compound R945357] is higher in IC50: 1170 nM for the first, > 10000 nM for the second.

Compared with `Fc1cnc(NC2CCC2)nc1Nc1ccc(N2CCOCC2)cc1` [Compound R945358], `O=C(COc1cccc(Nc2ncc(F)c(Nc3ccc(N4CCOCC4)cc3)n2)c1)NC1CCC1` [Compound R945362] is lower in IC50: > 10000 nM for the first, 1570 nM for the second.

Compared with `O=C(COc1cccc(Nc2ncc(F)c(Nc3ccc(N4CCOCC4)cc3)n2)c1)NC1CC1` [Compound R945360], `O=C(COc1cccc(Nc2ncc(F)c(NC3CC3)n2)c1)Nc1ccc(N2CCOCC2)cc1` [Compound R945365] is 5.3-fold lower in IC50: 1370 nM for the first, 257 nM for the second.

First: COC(=O)COc1cccc(Nc2ncc(F)c(Nc3ccc(N4CCOCC4)cc3)n2)c1 [Compound R945361]
Second: CNC(=O)COc1cccc(Nc2ncc(F)c(Nc3ccc4c(c3)[C@@H](N)CCO4)n2)c1 [Compound R950420]
The IC50 of the first is 21-fold higher: 2360 nM for the first, 114 nM for the second. The second is the more potent here.

`O=C(COc1cccc(Nc2ncc(F)c(NC3CC3)n2)c1)NC1CC1` [Compound R945363] and `O=C(COc1cccc(Nc2ncc(F)c(NC3CC3)n2)c1)NC1CCC1` [Compound R945364] are within 1.5-fold of each other in IC50: 687 nM for the first, 1000 nM for the second.

`O=C(COc1cccc(Nc2ncc(F)c(NC3CCC3)n2)c1)NC1CC1` [Compound R945393] and `COc1ccc(Nc2ncc(F)c(NC3CCC3)n2)cc1Cl` [Compound R945395] are within 1.5-fold of each other in IC50: 1340 nM for the first, 1140 nM for the second.

Going from `Fc1cnc(Nc2ccc(Cl)c(Cl)c2)nc1NC1CCC1` [Compound R945394] to `CCN(CC)CCCNc1ncc(F)c(Nc2ccc(Cl)c(Cl)c2)n1` [Compound R950470], the IC50 rises from 1240 nM to 16200 nM (13-fold). The first is the more potent here.

Going from `O=C1COc2ccc(Nc3nc(Nc4ccc5cc[nH]c5c4)ncc3F)nc2N1` [Compound R945443] to `CC1(C)Oc2ccc(Nc3nc(Nc4ccc5cc[nH]c5c4)ncc3F)nc2NC1=O` [Compound R945444], the IC50 falls from 81 nM to 43 nM (1.9-fold).

Going from `O=C1COc2ccc(Nc3nc(Nc4cc(Cl)cc(Cl)c4)ncc3F)nc2N1` [Compound R945454] to `COc1cc(Nc2nc(Nc3ccc(CN)cc3)ncc2F)cc(OC)c1` [Compound R950457], the IC50 falls from 20600 nM to 3090 nM (6.7-fold).

Going from `O=C(N[C@H]1CCOc2ccc(Nc3nc(Cl)ncc3F)cc21)OCc1ccccc1` [Compound R950413] to `CNC(=O)COc1cccc(Nc2ncc(F)c(Nc3ccc4c(c3)[C@@H](NC(=O)OCc3ccccc3)CCO4)n2)c1` [Compound R950417], the IC50 falls from > 10000 nM to 2160 nM.

Compared with `CNC(=O)COc1cccc(Nc2ncc(F)c(Nc3ccc4c(c3)[C@H](NC(=O)OCc3ccccc3)CCO4)n2)c1` [Compound R950418], `COc1cc(Nc2nc(Nc3ccc(CNC(=O)OC(C)(C)C)cc3)ncc2F)cc(OC)c1` [Compound R950456] is 2.3-fold higher in IC50: 1670 nM for the first, 3780 nM for the second. The first is the more potent here.

`CC1(C)C(=O)NC(=O)c2cc(Nc3nc(N[C@@H]4CCCC[C@H]4N)ncc3F)ccc21` [Compound R950442] and `NC1CCCCC1Nc1ncc(F)c(Nc2ccc3c(c2)NC(=O)C(CCO)O3)n1` (stereo not drawn) [Compound R950443] cannot be ordered by IC50: > 10000 nM for the first, > 10000 nM for the second.

Compared with `CCN(CC)CCNC(=O)c1ccc(Nc2ncc(F)c(Nc3ccc4c(c3)C(=O)NC(=O)C4(C)C)n2)cc1` [Compound R950447], `CCN(CC)CCCNc1ncc(F)c(Nc2ccc3c(c2)C(=O)NC(=O)C3(C)C)n1` [Compound R950472] is 4.9-fold higher in IC50: 1420 nM for the first, 6950 nM for the second. The first is the more potent here.

`CCN(CC)CCCNc1ncc(F)c(Nc2cc(OC)cc(OC)c2)n1` [Compound R950469] and `CCN(CC)CCCNc1ncc(F)c(Nc2ccc3c(c2)NC(=O)[C@H](C)O3)n1` [Compound R950471] cannot be ordered by IC50: > 10000 nM for the first, 50500 nM for the second.
